# In PubChem BioAssay AID1963433 (Molecular Pharmacology Branch, DTP, NCI, 2024):
# Tested on: 772245-204-R-J1-PDC complex spheroid growth
# Test: Anticancer human tumor 772245-204-R-J1-PDC patient-derived rhabdomyosarcoma cell line growth inhibition [Asc]
# Details: for IC50: curve of first compound; for viability, T/C: stronger effect = lower value
# Procedure, shortened: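 Complex spheroids combining tumor cells with HUVEC endothelial cells and human MSCs, at 37 degrees C, 5% CO2; agents tested alone or combined, half-log dilutions from at or near clinical Cmax, or 10 microM if Cmax unknown.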
# [1] = second compound 0.1 µM, first compound 0.0316 µM
# [2] = second compound 0.1 µM, first compound 0.1 µM
# [3] = second compound 0.1 µM, first compound 0.316 µM
# [4] = second compound 0.1 µM, first compound 1 µM
# [5] = second compound 0.316 µM, first compound 0.0316 µM
# [6] = second compound 0.316 µM, first compound 0.1 µM
# [7] = second compound 0.316 µM, first compound 0.316 µM
# [8] = second compound 0.316 µM, first compound 1 µM
# [9] = second compound 1 µM, first compound 0.0316 µM
# [10] = second compound 1 µM, first compound 0.1 µM
# [11] = second compound 1 µM, first compound 0.316 µM
# [12] = second compound 1 µM, first compound 1 µM
# [13] = second compound 3.16 µM, first compound 0.0316 µM
# [14] = second compound 3.16 µM, first compound 0.1 µM
# [15] = second compound 3.16 µM, first compound 0.316 µM
# [16] = second compound 3.16 µM, first compound 1 µM
# [17] = second compound 10 µM, first compound 0.0316 µM
# [18] = second compound 10 µM, first compound 0.1 µM
# [19] = second compound 10 µM, first compound 0.316 µM
# [20] = second compound 10 µM, first compound 1 µM
# 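Note: compound exposure lasted seven days.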
# 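Throughout, for viability, T/C: 100% = DMSO vehicle control viability.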
smiles,measurement,setting,value
C=C(F)C(=O)N1CCN(c2nc(OCC3CCCN3C)nc3c2CCN(c2cccc4cccc(Cl)c24)C3)CC1CC#N (stereo not given) + Cc1c(S(C)(=O)=O)c(-c2cc(F)cc(N3CCN(c4ccc(NS(=O)(=O)c5ccc(NC(CCN6CCC(C(=O)OCCCP(=O)(O)O)CC6)CSc6ccccc6)c(S(=O)(=O)C(F)(F)F)c5)cc4)CC3)c2)c(-c2ccc(Cl)cc2)n1C(C)C,IC50,second compound 0.1 µM,1570 nM
same,IC50,second compound 0.316 µM,772 nM
same,IC50,second compound 1 µM,< 31.6 nM
same,IC50,second compound 3.16 µM,< 31.6 nM
same,IC50,second compound 10 µM,< 31.6 nM
same,"viability, T/C",[1],79%
same,"viability, T/C",[2],77.7%
same,"viability, T/C",[3],72.6%
same,"viability, T/C",[4],70.7%
same,"viability, T/C","second compound 0.1 µM, first compound 3.16 µM",18.1%
same,"viability, T/C","second compound 0.1 µM, first compound 10 µM",0.14%
same,"viability, T/C",[5],60.4%
same,"viability, T/C",[6],65.2%
same,"viability, T/C",[7],52.3%
same,"viability, T/C",[8],47.8%
same,"viability, T/C","second compound 0.316 µM, first compound 3.16 µM",3.54%
same,"viability, T/C","second compound 0.316 µM, first compound 10 µM",0.12%
same,"viability, T/C",[9],40%
same,"viability, T/C",[10],45.9%
same,"viability, T/C",[11],35.4%
same,"viability, T/C",[12],30.9%
same,"viability, T/C","second compound 1 µM, first compound 3.16 µM",2.95%
same,"viability, T/C","second compound 1 µM, first compound 10 µM",0.1%
same,"viability, T/C",[13],35.7%
same,"viability, T/C",[14],39.7%
same,"viability, T/C",[15],45.7%
same,"viability, T/C",[16],20.1%
same,"viability, T/C","second compound 3.16 µM, first compound 3.16 µM",1.47%
same,"viability, T/C","second compound 3.16 µM, first compound 10 µM",0.11%
same,"viability, T/C",[17],43.3%
same,"viability, T/C",[18],39.4%
same,"viability, T/C",[19],37.3%
same,"viability, T/C",[20],17.6%
same,"viability, T/C","second compound 10 µM, first compound 3.16 µM",1.02%
same,"viability, T/C","second compound 10 µM, first compound 10 µM",0.18%
CCN1C(C(=O)NC23CCC(C(=O)O)(CC2)CC3)C(c2cccc(Cl)c2F)C2(C(=O)Nc3cc(Cl)ccc32)C12CCCCC2 (stereo not given) + Cc1c(S(C)(=O)=O)c(-c2cc(F)cc(N3CCN(c4ccc(NS(=O)(=O)c5ccc(NC(CCN6CCC(C(=O)OCCCP(=O)(O)O)CC6)CSc6ccccc6)c(S(=O)(=O)C(F)(F)F)c5)cc4)CC3)c2)c(-c2ccc(Cl)cc2)n1C(C)C,IC50,second compound 0.1 µM,1300 nM
same,IC50,second compound 0.316 µM,405 nM
same,IC50,second compound 1 µM,25.8 nM
same,IC50,second compound 3.16 µM,< 9.49 nM
same,IC50,second compound 10 µM,< 9.49 nM
same,"viability, T/C","second compound 0.1 µM, first compound 0.00949 µM",80%
same,"viability, T/C","second compound 0.1 µM, first compound 0.03 µM",84.5%
same,"viability, T/C","second compound 0.1 µM, first compound 0.0949 µM",71.5%
same,"viability, T/C","second compound 0.1 µM, first compound 0.3 µM",78.3%
same,"viability, T/C","second compound 0.1 µM, first compound 0.949 µM",57.6%
same,"viability, T/C","second compound 0.1 µM, first compound 3 µM",29.6%
same,"viability, T/C","second compound 0.316 µM, first compound 0.00949 µM",57.2%
same,"viability, T/C","second compound 0.316 µM, first compound 0.03 µM",65.5%
same,"viability, T/C","second compound 0.316 µM, first compound 0.0949 µM",67.2%
same,"viability, T/C","second compound 0.316 µM, first compound 0.3 µM",51.9%
same,"viability, T/C","second compound 0.316 µM, first compound 0.949 µM",36.6%
same,"viability, T/C","second compound 0.316 µM, first compound 3 µM",13.4%
same,"viability, T/C","second compound 1 µM, first compound 0.00949 µM",58.8%
same,"viability, T/C","second compound 1 µM, first compound 0.03 µM",49.2%
same,"viability, T/C","second compound 1 µM, first compound 0.0949 µM",38%
same,"viability, T/C","second compound 1 µM, first compound 0.3 µM",29.3%
same,"viability, T/C","second compound 1 µM, first compound 0.949 µM",25.9%
same,"viability, T/C","second compound 1 µM, first compound 3 µM",15%
same,"viability, T/C","second compound 3.16 µM, first compound 0.00949 µM",32.1%
same,"viability, T/C","second compound 3.16 µM, first compound 0.03 µM",42%
same,"viability, T/C","second compound 3.16 µM, first compound 0.0949 µM",35.3%
same,"viability, T/C","second compound 3.16 µM, first compound 0.3 µM",21.6%
same,"viability, T/C","second compound 3.16 µM, first compound 0.949 µM",17.2%
same,"viability, T/C","second compound 3.16 µM, first compound 3 µM",9.63%
same,"viability, T/C","second compound 10 µM, first compound 0.00949 µM",46.4%
same,"viability, T/C","second compound 10 µM, first compound 0.03 µM",48.7%
same,"viability, T/C","second compound 10 µM, first compound 0.0949 µM",38.3%
same,"viability, T/C","second compound 10 µM, first compound 0.3 µM",35.2%
same,"viability, T/C","second compound 10 µM, first compound 0.949 µM",22.1%
same,"viability, T/C","second compound 10 µM, first compound 3 µM",4.04%
CNC(C)C(=O)NC1CN(S(=O)(=O)c2cccc(S(=O)(=O)N3CCC4CCC(C(=O)NC(c5ccccc5)c5ccccc5)N4C(=O)C(NC(=O)C(C)NC)C3)c2)CCC2CCC(C(=O)NC(c3ccccc3)c3ccccc3)N2C1=O (stereo not given) + Cc1c(S(C)(=O)=O)c(-c2cc(F)cc(N3CCN(c4ccc(NS(=O)(=O)c5ccc(NC(CCN6CCC(C(=O)OCCCP(=O)(O)O)CC6)CSc6ccccc6)c(S(=O)(=O)C(F)(F)F)c5)cc4)CC3)c2)c(-c2ccc(Cl)cc2)n1C(C)C,IC50,second compound 0.1 µM,> 1000 nM
same,IC50,second compound 0.316 µM,72 nM
same,IC50,second compound 1 µM,< 3.16 nM
same,IC50,second compound 3.16 µM,< 3.16 nM
same,IC50,second compound 10 µM,< 3.16 nM
same,"viability, T/C","second compound 0.1 µM, first compound 0.00316 µM",79.9%
same,"viability, T/C","second compound 0.1 µM, first compound 0.01 µM",66.3%
same,"viability, T/C",[1],72.7%
same,"viability, T/C",[2],64.8%
same,"viability, T/C",[3],63.5%
same,"viability, T/C",[4],63%
same,"viability, T/C","second compound 0.316 µM, first compound 0.00316 µM",56.1%
same,"viability, T/C","second compound 0.316 µM, first compound 0.01 µM",56.5%
same,"viability, T/C",[5],55%
same,"viability, T/C",[6],45.8%
same,"viability, T/C",[7],45.2%
same,"viability, T/C",[8],44.5%
same,"viability, T/C","second compound 1 µM, first compound 0.00316 µM",43%
same,"viability, T/C","second compound 1 µM, first compound 0.01 µM",53.5%
same,"viability, T/C",[9],37.9%
same,"viability, T/C",[10],37.1%
same,"viability, T/C",[11],35.2%
same,"viability, T/C",[12],39.1%
same,"viability, T/C","second compound 3.16 µM, first compound 0.00316 µM",31.4%
same,"viability, T/C","second compound 3.16 µM, first compound 0.01 µM",32.8%
same,"viability, T/C",[13],31.6%
same,"viability, T/C",[14],29.5%
same,"viability, T/C",[15],29.8%
same,"viability, T/C",[16],25%
same,"viability, T/C","second compound 10 µM, first compound 0.00316 µM",32.2%
same,"viability, T/C","second compound 10 µM, first compound 0.01 µM",41.5%
same,"viability, T/C",[17],31.4%
same,"viability, T/C",[18],25.2%
same,"viability, T/C",[19],23.7%
same,"viability, T/C",[20],22.3%
